Source: patent publication US20230312587A1, “PTERIDINONE COMPOUNDS AND USES THEREOF” (Vertex Pharmaceutical Incorporated, priority 2018, published 2023)

The molecules below were run on β-catenin-TCF-mediated reporter transcription activity in Colo 205 cells (assay: Colo 205 reporter assay (TCF/LEF luciferase)). Conditions: Colo 205 TCF/LEF luciferase reporter, five hours after addition of compound; read-out: TCF reporter Colo205 IC50.
Assay type: cell-based
In short: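 Luciferase signal from a TCF/LEF-driven reporter, stably integrated in Colo 205 colon cancer cells, was measured 5 h after compound addition.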

Question: For Cc1nc(N[C@H]2C[C@@H](Cc3nc(C(F)(F)F)no3)C2)nc2c1NC(=O)[C@H](C(C)C)N2C [Compound 660, (S)-7-isopropyl-4,8-dimethyl-2-(((1s,3R)-3-((3-(trifluoromethyl)-1,2,4-oxadiazol-5-yl)methyl)cyclobutyl)amino)-7,8-dihydropteridin-6(5H)-one], which IC50 is on record?
Answer: < 300 nM

Question: How did the IC50 turn out when Cc1nc(NCc2cnn(Cc3ccc(C(F)(F)F)nc3)c2)nc2c1NC(=O)C1(CCOC1)N2C (stereo not shown) [Compound 662, 4′,8′-dimethyl-2′-(((1-((6-(trifluoromethyl)pyridin-3-yl)methyl)-1H-pyrazol-4-yl)methyl)amino)-4,5,5′,8′-tetrahydro-2H,6′H-spiro[furan-3,7′-pteridin]-6′-one] was run?
Answer: 300 to 1000 nM

Question: With Cc1nc(NCc2cnn(Cc3ccc(C(F)(F)F)nc3)c2)nc2c1NC(=O)C1(CCOC1)N2C (stereo not shown) [Compound 663, 4′,8′-dimethyl-2′-(((1-((6-(trifluoromethyl)pyridin-3-yl)methyl)-1H-pyrazol-4-yl)methyl)amino)-4,5,5′,8′-tetrahydro-2H,6′H-spiro[furan-3,7′-pteridin]-6′-one] as the molecule, how does the IC50 read?
Answer: 1000 to 5000 nM

Question: How did the IC50 turn out when CO[C@H](C)[C@H]1C(=O)Nc2c(C)nc(N[C@H]3C[C@@H](Cc4nc(C(F)(F)F)no4)C3)nc2N1C [Compound 664, (S)-7-((R)-1-methoxyethyl)-4,8-dimethyl-2-(((1s,3R)-3-((3-(trifluoromethyl)-1,2,4-oxadiazol-5-yl)methyl)cyclobutyl)amino)-7,8-dihydropteridin-6(5H)-one] was run?
Answer: 300 to 1000 nM

Question: With COC1(C2C(=O)Nc3c(C)nc(NCc4cnn(Cc5cc(C(F)(F)F)nn5C)c4)nc3N2C)CC1 (stereo not shown) [Compound 666, 7-(1-methoxycyclopropyl)-4,8-dimethyl-2-(((1-((1-methyl-3-(trifluoromethyl)-1H-pyrazol-5-yl)methyl)-1H-pyrazol-4-yl)methyl)amino)-7,8-dihydropteridin-6(511)-one] as the molecule, how does the IC50 read?
Answer: 300 to 1000 nM

Same assay, conditions: Homo sapiens, COLO 205, 5 h, Colo 205 TCF/LEF luciferase reporter, five hours after addition of compound; read-out: TCF reporter Colo205 IC50

Question: With CO[C@H](C)[C@H]1C(=O)Nc2c(C)nc(N[C@H]3C[C@@H](N(C)c4cnc(C(F)(F)F)cn4)C3)nc2N1C [Compound 651, (S)-7-((R)—1-methoxyethyl)-4,8-dimethyl-2-((cis-3-(methyl(5-(trifluoromethyl)pyrazin-2-yl)amino)cyclobutyl)amino)-7,8-dihydropteridin-6(5H)-one] as the molecule, how does the IC50 read?
Answer: 1000 to 5000 nM

Question: How did the IC50 turn out when Cc1nc(N[C@H]2C[C@@H](N(C)c3cnc(C(F)(F)F)cn3)C2)nc2c1NC(=O)[C@H](C(C)C)N2C [Compound 652, (S)-7-isopropyl-4,8-dimethyl-2-((cis-3-(methyl(5-(trifluoromethyl)pyrazin-2-yl)amino)cyclobutyl)amino)-7,8-dihydropteridin-6(5H)-one] was run?
Answer: 300 to 1000 nM

Question: With Cc1nc(N[C@H]2C[C@@H](N(C)c3cnc(C(F)(F)F)cn3)C2)nc2c1NC(=O)[C@H](C)N2C [Compound 653, (S)-4,7,8-trimethyl-2-((cis-3-(methyl(5-(trifluoromethyl)pyrazin-2-yl)amino)cyclobutyl)amino)-7,8-dihydropteridin-6(5H)-one] as the molecule, how does the IC50 read?
Answer: ≥ 5000 nM

Question: For Cc1nc(N[C@H]2C[C@H](N(C)c3cnc(C(F)(F)F)cn3)C2)nc2c1NC(=O)[C@H](C(C)C)N2C [Compound 655, (7S)-7-isopropyl-4,8-dimethyl-2-((trans-3-(methyl(5-(trifluoromethyl)pyrazin-2-yl)amino)cyclobutyl)amino)-7,8-dihydropteridin-6(5H)-one], which IC50 is on record?
Answer: < 300 nM

Question: With CO[C@H](C)[C@H]1C(=O)Nc2c(C)nc(N[C@H]3C[C@H](Oc4cnc(C(F)(F)F)nc4)C3)nc2N1C [Compound 657, (S)-7-((R)—1-methoxyethyl)-4,8-dimethyl-2-((trans-3-((2-(trifluoromethyl)pyrimidin-5-yl)oxy)cyclobutyl)amino)-7,8-dihydropteridin-6(5H)-one] as the molecule, how does the IC50 read?
Answer: < 300 nM

Question: For CO[C@H](C)[C@H]1C(=O)Nc2c(C)nc(NCc3cnn(Cc4cc(F)c(F)c(F)c4)c3)nc2N1C [Compound 659, (S)-7-((R)-1-methoxyethyl)-4,8-dimethyl-2-(((1-(3,4,5-trifluorobenzyl)-1H-pyrazol-4-yl)methyl)amino)-7,8-dihydropteridin-6(5H)-one], which IC50 is on record?
Answer: < 300 nM

Question: COC1(C2C(=O)Nc3c(C)nc(NCc4cnn(Cc5ccc(C(F)(F)F)nc5)c4)nc3N2C)CCC1 (stereo not shown) [Compound 661, 7-(1-methoxycyclobutyl)-4,8-dimethyl-2-(((1-((6-(trifluoromethyl)pyridin-3-yl)methyl)-1H-pyrazol-4-yl)methyl)amino)-7,8-dihydropteridin-6(5H)-one] was tested. Which IC50 did it give?
Answer: < 300 nM

Question: COC1(C2C(=O)Nc3c(C)nc(NCc4cnn(Cc5ccc(C(F)(F)F)nc5)c4)nc3N2C)CC1 (stereo not shown) [Compound 665, 7-(1-methoxycyclopropyl)-4,8-dimethyl-2-(((1-((6-(trifluoromethyl)pyridin-3-yl)methyl)-1H-pyrazol-4-yl)methyl)amino)-7,8-dihydropteridin-6(5H)-one] was tested. Which IC50 did it give?
Answer: 300 to 1000 nM

Question: With COC1(C2C(=O)Nc3c(C)nc(NCc4cnn(Cc5cc(F)c(F)c(F)c5)c4)nc3N2C)CCC1 (stereo not shown) [Compound 668, 7-(1-methoxycyclobutyl)-4,8-dimethyl-2-(((1-(3,4,5-trifluorobenzyl)-1H-pyrazol-4-yl)methyl)amino)-7,8-dihydropteridin-6(5H)-one] as the molecule, how does the IC50 read?
Answer: < 300 nM

Question: Which IC50 does the source give for COC1(C2C(=O)Nc3c(C)nc(NCc4cnn(Cc5cc(C(F)(F)F)nn5C)c4)nc3N2C)CCC1 (stereo not shown) [Compound 670, 7-(1-methoxycyclobutyl)-4,8-dimethyl-2-(((1-((1-methyl-3-(trifluoromethyl)-1H-pyrazol-5-yl)methyl)-1H-pyrazol-4-yl)methyl)amino)-7,8-dihydropteridin-6(5H)-one] here?
Answer: < 300 nM

Question: With Cc1nc(N[C@H]2C[C@H](n3nccc3C(F)(F)F)C2)nc2c1NC(=O)[C@H](C(C)C)N2C [Compound 673, (7S)-7-isopropyl-4,8-dimethyl-2-((trans-3-(5-(trifluoromethyl)-1H-pyrazol-1-yl)cyclobutyl)amino)-7,8-dihydropteridin-6(5H)-one] as the molecule, how does the IC50 read?
Answer: 300 to 1000 nM

Question: With Cc1nc(N[C@H]2C[C@H](Oc3cc(F)c(F)c(F)c3)C2)nc2c1NC(=O)[C@H](COC(C)(C)C)N2C [Compound 674, (S)-7-(tert-butoxymethyl)-4,8-dimethyl-2-((trans-3-(3,4,5-trifluorophenoxy)cyclobutyl)amino)-7,8-dihydropteridin-6(5H)-one] as the molecule, how does the IC50 read?
Answer: < 300 nM

Question: With COC1(C2C(=O)Nc3c(C)nc(NC4CN(C(=O)c5cc(F)c(F)c(F)c5)C4)nc3N2C)CCC1 (stereo not shown) [Compound 675, 7-(1-methoxycyclobutyl)-4,8-dimethyl-2-((1-(3,4,5-trifluorobenzoyl)azetidin-3-yl)amino)-7,8-dihydropteridin-6(5H)-one] as the molecule, how does the IC50 read?
Answer: 300 to 1000 nM

Question: For Cc1nc(N[C@H]2C[C@@H](Cn3cncc3C(F)(F)F)C2)nc2c1NC(=O)[C@H](C(C)C)N2C [Compound 679, (S)-7-isopropyl-4,8-dimethyl-2-((cis-3-((5-(trifluoromethyl)-1H-imidazol-1-yl)methyl)cyclobutyl)amino)-7,8-dihydropteridin-6(5H)-one], which IC50 is on record?
Answer: 300 to 1000 nM

Question: How did the IC50 turn out when Cc1nc(N[C@H]2C[C@@H](Cn3cnc(C(F)(F)F)c3)C2)nc2c1NC(=O)[C@H](C(C)C)N2C [Compound 680, (S)-7-isopropyl-4,8-dimethyl-2-((cis-3-((4-(trifluoromethyl)-1H-imidazol-1-yl)methyl)cyclobutyl)amino)-7,8-dihydropteridin-6(5H)-one] was run?
Answer: 300 to 1000 nM

Question: For CO[C@H](C)[C@H]1C(=O)Nc2c(C)nc(N[C@H]3C[C@H](N(C)c4cnc(C(F)(F)F)cn4)C3)nc2N1C [Compound 681, (S)-7-((R)-1-methoxyethyl)-4,8-dimethyl-2-((trans-3-(methyl(5-(trifluoromethyl)pyrazin-2-yl)amino)cyclobutyl)amino)-7,8-dihydropteridin-6(5H)-one], which IC50 is on record?
Answer: 300 to 1000 nM

Question: How did the IC50 turn out when CC[C@H]1C(=O)Nc2c(C)nc(N[C@H]3C[C@H](N(C)c4cnc(C(F)(F)F)cn4)C3)nc2N1C [Compound 682, (S)-7-ethyl-4,8-dimethyl-2-((trans-3-(methyl(5-(trifluoromethyl)pyrazin-2-yl)amino)cyclobutyl)amino)-7,8-dihydropteridin-6(5H)-one] was run?
Answer: < 300 nM

Question: Cc1nc(N[C@H]2C[C@H](N(C)c3cnc(C(F)(F)F)cn3)C2)nc2c1NC(=O)[C@H](C)N2C [Compound 683, (S)-4,7,8-trimethyl-2-((trans-3-(methyl(5-(trifluoromethyl)pyrazin-2-yl)amino)cyclobutyl)amino)-7,8-dihydropteridin-6(5H)-one] was tested. Which IC50 did it give?
Answer: 300 to 1000 nM

Question: How did the IC50 turn out when Cc1nc(N[C@H]2C[C@@H](Cn3ccc(C(F)(F)F)n3)C2)nc2c1NC(=O)[C@H](C(C)C)N2C [Compound 690, (S)-7-isopropyl-4,8-dimethyl-2-((cis-3-((3-(trifluoromethyl)-1H-pyrazol-1-yl)methyl)cyclobutyl)amino)-7,8-dihydropteridin-6(5H)-one] was run?
Answer: < 300 nM

Question: With CO[C@H](C)[C@H]1C(=O)Nc2c(C)nc(N[C@H]3C[C@@H](Cn4ccc(C(F)(F)F)n4)C3)nc2N1C [Compound 691, (S)-7-((R)-1-methoxyethyl)-4,8-dimethyl-2-((cis-3-((3-(trifluoromethyl)-1H-pyrazol-1-yl)methyl)cyclobutyl)amino)-7,8-dihydropteridin-6(5H)-one] as the molecule, how does the IC50 read?
Answer: < 300 nM

Question: How did the IC50 turn out when CC[C@H]1C(=O)Nc2c(C)nc(N[C@H]3C[C@@H](Cn4ccc(C(F)(F)F)n4)C3)nc2N1C [Compound 692, (S)-7-ethyl-4,8-dimethyl-2-((cis-3-((3-(trifluoromethyl)-1H-pyrazol-1-yl)methyl)cyclobutyl)amino)-7,8-dihydropteridin-6(5H)-one] was run?
Answer: 300 to 1000 nM

Question: With Cc1nc(N[C@H]2C[C@@H](COc3ccnn3C)C2)nc2c1NC(=O)[C@H](C(C)C)N2C [Compound 693, (S)-7-isopropyl-4,8-dimethyl-2-((cis-3-(((1-methyl-1H-pyrazol-5-yl)oxy)methyl)cyclobutyl)amino)-7,8-dihydropteridin-6(5H)-one] as the molecule, how does the IC50 read?
Answer: ≥ 5000 nM

Question: Cc1nc(N[C@H]2C[C@@H](COc3cnc(C#N)c(F)c3)C2)nc2c1NC(=O)[C@H](C(C)C)N2C [Compound 694, 3-fluoro-5-((cis-3-(((S)-7-isopropyl-4,8-dimethyl-6-oxo-5,6,7,8-tetrahydropteridin-2-yl)amino)cyclobutyl)methoxy)picolinonitrile] was tested. Which IC50 did it give?
Answer: < 300 nM
